Reference: ChEMBL document CHEMBL6121027, “Novel Bicyclic Heterocyclic Compounds as CD73 Inhibitors for Treating Cancer” (ACS Med Chem Lett, 2025)

target: 5'-nucleotidase (Homo sapiens, UniProt P21589); experiment: Inhibition of recombinant human CD73 preincubated for 15 mins followed by AMP addition measured after 10 mins by LC/MS analysis
Sequence (P21589 whole entry): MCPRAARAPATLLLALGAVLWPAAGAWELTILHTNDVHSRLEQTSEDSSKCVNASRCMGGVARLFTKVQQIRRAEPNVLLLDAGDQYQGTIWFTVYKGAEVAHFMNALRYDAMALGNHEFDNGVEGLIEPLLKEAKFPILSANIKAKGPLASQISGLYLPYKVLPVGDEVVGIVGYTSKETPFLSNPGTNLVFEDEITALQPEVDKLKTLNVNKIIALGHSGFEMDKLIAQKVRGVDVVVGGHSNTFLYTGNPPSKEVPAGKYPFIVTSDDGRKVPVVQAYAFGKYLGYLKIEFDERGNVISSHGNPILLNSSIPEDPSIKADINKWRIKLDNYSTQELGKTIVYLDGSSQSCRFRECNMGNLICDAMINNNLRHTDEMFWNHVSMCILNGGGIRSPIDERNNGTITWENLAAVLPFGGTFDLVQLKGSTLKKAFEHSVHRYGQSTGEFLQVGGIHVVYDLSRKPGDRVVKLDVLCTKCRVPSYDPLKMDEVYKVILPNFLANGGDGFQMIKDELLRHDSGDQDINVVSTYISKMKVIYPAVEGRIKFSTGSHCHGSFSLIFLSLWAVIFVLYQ

| Compound | IC50 |
| --- | --- |
| C[C@@H](Nc1cc([C@@H](Oc2nn(C)c3nnc(-c4n[nH]c(=O)[nH]c4=O)cc23)C(F)F)ccn1)C(F)(F)F | 0.04 nM |
| COCCOc1cc([C@@H](Oc2nn(C)c3nnc(-c4n[nH]c(=O)[nH]c4=O)cc23)C(F)F)ccn1 | 0.05 nM |
| C[C@H](Nc1cc([C@@H](Oc2nn(C)c3nnc(-c4n[nH]c(=O)[nH]c4=O)cc23)C(F)F)ccn1)C(F)(F)F | 0.04 nM |
| Cn1nc(O[C@H](c2ccnc(OCC(C)(F)F)c2)C(F)F)c2cc(-c3n[nH]c(=O)[nH]c3=O)nnc21 | 0.04 nM |
